Laboratory results from paper PMC4204381 (Computational and Structural Biotechnology Journal, 2014).
Like-named read-outs stand apart in the source and are kept apart here.

Columns and labels:
[1] = tested on: Male Sprague–Dawley rats; type: in vivo, rat; settings: p < 0.05; for Oleoylcarnitine blood level vs control: Fig. 4A; for Palmitoylcarnitine blood level vs control: Fig. 4B; for LysoPC(20:1) blood level vs control: Fig. 4C
[2] = tested on: Male Sprague–Dawley rats; experiment: Histopathology and tissue observations in rats after a single oral dose; settings: for hepatic vacuolization / hepatic necrosis: low and high doses, 6 or 24 h
[3] = tested on: patients; settings: cited from earlier work
[4] = tested on: Male Sprague–Dawley rats; experiment: Clinical chemistry; settings: for clinical chemistry changes (ALT, AST, ALP): low dose, 6 or 24 h

Row | SMILES | Oleoylcarnitine blood level vs control ([1]; 6 h) | Palmitoylcarnitine blood level vs control ([1]; 6 h) | LysoPC(20:1) blood level vs control ([1]; 6 h) | Palmitoylcarnitine blood level vs control ([1]; 24 h) | LysoPC(20:1) blood level vs control ([1]; 24 h) | hepatic vacuolization / hepatic necrosis [2] | clinical chemistry changes (ALT, AST, ALP) [4] | other results
1 | CC(=O)Nc1ccc(O)cc1 [APAP, acetaminophen] | significantly increased | significantly increased | significantly decreased | appeared to be increased | appeared to be decreased |  |  | Oleoylcarnitine blood level vs control ([1]; 24 h): significantly increased
2 | O=C1CN(/N=C/c2ccc(-c3ccc([N+](=O)[O-])cc3)o2)C(O)=N1 [DAN, dantrolene] |  | significantly increased |  |  | significantly decreased | neither hepatic vacuolization nor hepatic necrosis |  | incidence of hepatotoxicity ([3]; patients): 0.35%
3 | NC(=O)OCC(COC(N)=O)c1ccccc1 [FEL, felbamate] |  |  | significantly decreased | appeared to be increased | significantly decreased | neither hepatic vacuolization nor hepatic necrosis | did not have any clinical chemistry changes | 
4 | Cc1cnc(NC(=O)C2=C(O)c3ccccc3S(=O)(=O)N2C)s1 [MEL, meloxicam] |  | significantly increased |  |  | appeared to be decreased | neither hepatic vacuolization nor hepatic necrosis |  | inflammation in the capsule of kidney (incidence) ([2]; rats treated with MEL for 24 h): 1 out of 5; inflammation in the capsule of liver (incidence) ([2]; rats treated with MEL for 24 h): 2 out of 5; ALT increase of the ALT value of the control group ([4]; 24 h, high dose group): < 2 fold
5 | CN(C)C(=N)N=C(N)N [MET, metformin] | significantly increased |  |  |  |  | neither hepatic vacuolization nor hepatic necrosis | did not have any clinical chemistry changes | Taurocholic acid blood level vs control ([1]; 6 h, Fig. 4D): significantly decreased; cases of liver injury reported to be associated with MET ([3]; by 2012, concomitant intake of other potential hepatotoxicants): < 10 cases; ALT increase of ALT value in control group ([4]; 6 h, high dose): < 3 fold
6 | Nc1c2c(nc3ccccc13)CCCC2 [tacrine] |  |  |  |  |  |  |  | ALT increase with no liver cell injury ([3]; human, in vivo): > 20 fold of the upper limit of normal
